Key:
[1] = target: T1, Mu-type opioid receptor (Homo sapiens, UniProt P35372)
Description: Agonist activity at human opioid gamma receptor expressed in CHO cells assessed as inhibition of DAGO-stimulated [35S]GTPgammaS binding

[2] = target: Delta-type opioid receptor (Homo sapiens, UniProt P41143); experiment: biochemical; type: cell-based, CHO
Description: Displacement of [3H]naltrindole from human opioid delta receptor expressed in CHO cells

[3] = target: T2, Kappa-type opioid receptor (Homo sapiens, UniProt P41145); experiment: biochemical; type: cell-based, CHO
Description: Displacement of [3H]U-69593 from human opioid kappa receptor expressed in CHO cells

[4] = target: T1, Mu-type opioid receptor; experiment: biochemical
Description: Displacement of [3H]DAMGO from human opioid gamma receptor expressed in CHO cells

[5] = target: T2, Kappa-type opioid receptor; type: functional, cell-based, CHO
Description: Agonist activity at human opioid kappa receptor expressed in CHO cells assessed as stimulation of [35S]GTPgammaS binding

[6] = target: T1, Mu-type opioid receptor; remark: listed apart in the source
Description: Agonist activity at human opioid gamma receptor expressed in CHO cells assessed as stimulation of [35S]GTP-gamma-S binding

[7] = target: T2, Kappa-type opioid receptor
Description: Antagonist activity at human opioid kappa receptor expressed in CHO cells assessed as inhibition of U-50488-stimulated [35S]GTP-gamma-S binding

Chain of Delta-type opioid receptor (P41143 whole entry): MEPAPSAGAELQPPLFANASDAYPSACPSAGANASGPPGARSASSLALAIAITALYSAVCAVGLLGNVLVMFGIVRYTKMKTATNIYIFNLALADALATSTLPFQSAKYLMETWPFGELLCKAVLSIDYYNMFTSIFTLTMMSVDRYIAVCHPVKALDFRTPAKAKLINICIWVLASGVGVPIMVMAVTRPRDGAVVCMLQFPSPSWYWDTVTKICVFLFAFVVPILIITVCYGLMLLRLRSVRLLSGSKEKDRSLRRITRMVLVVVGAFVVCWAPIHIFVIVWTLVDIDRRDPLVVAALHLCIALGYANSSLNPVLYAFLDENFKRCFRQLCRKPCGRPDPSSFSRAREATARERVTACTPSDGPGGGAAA
T1 sequence (P35372 whole entry): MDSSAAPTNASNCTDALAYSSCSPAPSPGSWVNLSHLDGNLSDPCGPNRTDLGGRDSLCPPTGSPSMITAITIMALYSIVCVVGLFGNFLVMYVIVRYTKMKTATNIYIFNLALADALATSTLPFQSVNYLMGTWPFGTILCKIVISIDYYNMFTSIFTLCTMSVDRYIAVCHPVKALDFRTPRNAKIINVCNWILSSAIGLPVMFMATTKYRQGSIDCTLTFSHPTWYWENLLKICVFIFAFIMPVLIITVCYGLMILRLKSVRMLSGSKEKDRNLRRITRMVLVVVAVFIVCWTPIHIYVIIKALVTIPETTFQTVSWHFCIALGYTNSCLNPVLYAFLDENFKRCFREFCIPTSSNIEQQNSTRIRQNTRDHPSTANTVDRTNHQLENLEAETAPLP
T2 sequence (P41145 whole entry): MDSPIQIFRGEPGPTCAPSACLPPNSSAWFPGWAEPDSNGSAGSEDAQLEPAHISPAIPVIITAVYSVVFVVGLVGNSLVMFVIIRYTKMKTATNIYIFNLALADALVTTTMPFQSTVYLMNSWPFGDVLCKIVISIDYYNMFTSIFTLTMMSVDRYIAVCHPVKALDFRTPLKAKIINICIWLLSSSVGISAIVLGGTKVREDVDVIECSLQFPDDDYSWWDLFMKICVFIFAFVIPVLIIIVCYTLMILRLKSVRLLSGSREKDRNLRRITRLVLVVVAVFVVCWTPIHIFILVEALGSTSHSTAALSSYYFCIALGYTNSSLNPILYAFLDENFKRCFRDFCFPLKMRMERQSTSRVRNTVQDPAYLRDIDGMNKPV

SMILES	IC50 [1] [nM]	Ki [2] [nM]	Ki [3] [nM]	Ki [4] [nM]	EC50 [5] [nM]	EC50 [6] [nM]	IC50 [7] [nM]
C=CCN1CC[C@]23c4c5ccc(OC(=O)CCCCCCCCC(=O)Oc6ccc7c(c6)[C@@]68CCCCC6[C@@H](C7)N(CC6CCC6)CC8)c4O[C@H]2C(=O)CC[C@@]3(O)[C@H]1C5 (some centres undefined)	25	39	0.13	0.43	1.6	2	–
O=C(CCCCCCCCC(=O)Oc1ccc2c3c1O[C@H]1C(=O)CC[C@@]4(O)[C@@H](C2)N(CC2CC2)CC[C@]314)Oc1ccc2c(c1)[C@@]13CCCCC1[C@@H](C2)N(CC1CCC1)CC3 (some centres undefined)	160	15	0.12	0.29	3.4	4.4	–
O=C(CCCCCCCCC(=O)Oc1ccc2c3c1O[C@H]1[C@H](O)CC[C@@]4(O)[C@@H](C2)N(CC2CCC2)CC[C@]314)Oc1ccc2c(c1)[C@@]13CCCCC1[C@@H](C2)N(CC1CCC1)CC3 (some centres undefined)	18	28	0.34	0.46	3.2	–	600
O=C(O)CCCCCCCCC(=O)Oc1ccc2c(c1)[C@@]13CCCCC1[C@@H](C2)N(CC1CCC1)CC3 (some centres undefined)	–	–	–	–	28	–	–

From ChEMBL document CHEMBL1147138 (J Med Chem, 2007)
